Laboratory results published in patent publication US10780090B2, “Heteroaryl compounds useful as inhibitors of SUMO activating enzyme” (Millennium Pharmaceuticals, Inc., priority 2014, dated 2020).

Molecular target: recombinant human SAE enzyme (Homo sapiens (Human), UniProt Q9UBT2)
Test: SAE HTRF enzyme assay
Format: biochemical
Settings: for inhibition at 0.111 µM: read-out: Percent Inhibition
Procedure, shortened: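 Enzyme reaction: 50 mM HEPES pH 7.5, 5 mM MgCl2, 250 μM GSH, 0.05% BSA, 0.5 μM ATP, 0.01 μM Ubc9-GST, 0.125 μM Sumo-Flag, 0.11 nM SAE; 105 min, 24° C. Stop/detect, 2 h, then HTRF. % inh or IC50.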

[1] = SAE inhibition at compound concentration 0.111 μM
[2] = SAE inhibition, class symbols, legend in nM

recombinant human SAE enzyme, sequence (Q9UBT2 whole entry): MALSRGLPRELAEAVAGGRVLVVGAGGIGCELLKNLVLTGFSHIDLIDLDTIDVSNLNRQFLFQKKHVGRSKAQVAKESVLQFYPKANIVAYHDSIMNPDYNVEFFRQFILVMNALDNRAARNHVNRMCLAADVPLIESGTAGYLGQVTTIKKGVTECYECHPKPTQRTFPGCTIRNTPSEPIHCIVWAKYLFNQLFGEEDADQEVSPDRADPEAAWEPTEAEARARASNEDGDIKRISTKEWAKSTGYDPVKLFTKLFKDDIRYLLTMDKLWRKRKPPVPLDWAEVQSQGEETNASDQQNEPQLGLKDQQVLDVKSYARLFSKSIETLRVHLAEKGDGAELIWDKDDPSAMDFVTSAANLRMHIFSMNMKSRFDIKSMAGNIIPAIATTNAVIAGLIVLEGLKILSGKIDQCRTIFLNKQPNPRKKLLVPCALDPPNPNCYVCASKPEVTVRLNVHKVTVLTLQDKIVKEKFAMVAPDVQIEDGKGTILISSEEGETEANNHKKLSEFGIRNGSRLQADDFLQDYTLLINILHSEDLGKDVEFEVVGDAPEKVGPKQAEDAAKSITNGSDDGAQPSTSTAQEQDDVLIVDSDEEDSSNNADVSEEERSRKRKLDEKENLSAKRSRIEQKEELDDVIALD
recombinant human SAE enzyme, sequence (Q9UBE0 whole entry partner): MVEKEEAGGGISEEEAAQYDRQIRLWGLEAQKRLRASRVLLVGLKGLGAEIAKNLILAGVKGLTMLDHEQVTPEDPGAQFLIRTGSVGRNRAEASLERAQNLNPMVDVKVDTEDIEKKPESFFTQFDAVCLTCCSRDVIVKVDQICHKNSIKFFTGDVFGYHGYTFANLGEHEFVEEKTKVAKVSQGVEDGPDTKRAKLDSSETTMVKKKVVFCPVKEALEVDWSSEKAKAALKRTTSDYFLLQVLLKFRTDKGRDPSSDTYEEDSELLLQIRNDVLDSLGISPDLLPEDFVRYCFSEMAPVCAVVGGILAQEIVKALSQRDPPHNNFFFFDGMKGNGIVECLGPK

Structure (SMILES) | Percent Inhibition [1] [%] | IC50 [2] [nM] | Percent Inhibition (Concentration 0.111 μM) | IC50 (class symbols A/B/C) [nM] | inhibition at 0.111 µM (Concentration 0.111 μM) [%]
Cc1nc2c(s1)CCO[C@H]2c1cc(C(=O)c2cncnc2N[C@@H]2C[C@H](COS(N)(=O)=O)[C@@H](O)C2)sc1C (mixture of isomers) [I-287, [(1R,2S,4R)-2-hydroxy-4-{[5-({5-methyl-4-[(4S)-2-methyl-6,7-dihydro-4H-pyrano[3,4-d][1,3]thiazol-4-yl]-2-thienyl}carbonyl)pyrimidin-4-yl]amino}cyclopentyl]methyl sulfamate and [(1R,2S,4R)-2-hydroxy-4-{[5-({5-methyl-4-[(4R)-2-methyl-6,7-dihydro-4H-pyrano[3,4-d][1,3]thiazol-4-yl]-2-thienyl}carbonyl)pyrimidin-4-yl]amino}cyclopentyl]methyl sulfamate] | 97 | < 10 |  |  | 
NS(=O)(=O)OC[C@H]1C[C@@H](Nc2ncncc2C(=O)c2cc([C@@H]3OCCc4cccnc43)c(Cl)s2)C[C@@H]1O (single isomer, unassigned) [I-266a, [(1R,2S,4R)-4-{[5-({5-chloro-4-[(8S)-5,8-dihydro-6H-pyrano[3,4-b]pyridin-8-yl]-2-thienyl}carbonyl)pyrimidin-4-yl]amino}-2-hydroxycyclopentyl]methyl sulfamate or [(1R,2S,4R)-4-{[5-({5-chloro-4-[(8R)-5,8-dihydro-6H-pyrano[3,4-b]pyridin-8-yl]-2-thienyl}carbonyl)pyrimidin-4-yl]amino}-2-hydroxycyclopentyl]methyl sulfamate] |  |  | 41 | 100 to 1000 | 
NS(=O)(=O)OC[C@H]1C[C@@H](Nc2ncncc2C(=O)c2cc(Cc3ccccc3)c(Cl)s2)C[C@@H]1O [I-96, [(1R,2S,4R)-4-({5-[(4-benzyl-5-chloro-2-thienyl)carbonyl]pyrimidin-4-yl}amino)-2-hydroxycyclopentyl]methyl sulfamate] |  |  |  |  | 97
CN(C)Cc1cn(Cc2csc(C(=O)c3cncnc3N[C@@H]3C[C@H](COS(N)(=O)=O)[C@@H](O)C3)c2)c2ccccc12 [I-221, {(1R,2S,4R)-4-[(5-{[4-({3-[(dimethylamino)methyl]-1H-indol-1-yl}methyl)-2-thienyl]carbonyl}pyrimidin-4-yl)amino]-2-hydroxycyclopentyl}methyl sulfamate] |  |  |  | 100 to 1000 | 30
Cc1nc2n(c1C)CCO[C@@H]2c1cc(C(=O)c2cncnc2N[C@@H]2C[C@H](COS(N)(=O)=O)[C@@H](O)C2)sc1C (single isomer, unassigned) [I-356a, [(1R,2S,4R)-4-{[5-({4-[(8R)-2,3-dimethyl-5,6-dihydro-8H-imidazo[2,1-c][1,4]oxazin-8-yl]-5-methyl-2-thienyl}carbonyl)pyrimidin-4-yl]amino}-2-hydroxycyclopentyl]methyl sulfamate or [(1R,2S,4R)-4-{[5-({4-[(8S)-2,3-dimethyl-5,6-dihydro-8H-imidazo[2,1-c][1,4]oxazin-8-yl]-5-methyl-2-thienyl}carbonyl)pyrimidin-4-yl]amino}-2-hydroxycyclopentyl]methyl sulfamate] | 52 | 10 to 100 |  |  | 
NS(=O)(=O)OC[C@H]1C[C@@H](Nc2ncncc2C(=O)c2cc([C@@H]3NCCc4ccc(Cl)cc43)c(Cl)o2)C[C@@H]1O (single isomer, unassigned) [I-299a, {(1R,2S,4R)-4-[(5-{5-chloro-4-[(1R)-7-chloro-1,2,3,4-tetrahydroisoquinolin-1-yl]-2-furoyl}pyrimidin-4-yl)amino]-2-hydroxycyclopentyl}methyl sulfamate or {(1R,2S,4R)-4-[(5-{5-chloro-4-[(1S)-7-chloro-1,2,3,4-tetrahydroisoquinolin-1-yl]-2-furoyl}pyrimidin-4-yl)amino]-2-hydroxycyclopentyl}methyl sulfamate] | 101 | < 10 |  |  | 
